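These data come from cells grown in 96-well plates and exposed to compound for 48 hours at five concentrations. TGI: concentration producing complete growth inhibition.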
Legend:
Experiment in all cases: inhibition of tumour cell growth, NCI panel, 48 h
OVCAR-8 ovarian = test system: OVCAR-8 ovarian
MDA-MB-435 = test system: MDA-MB-435
MDA-MB-231 breast = test system: MDA-MB-231 breast
HS 578T breast = test system: HS 578T breast
A549 NSCLC = test system: A549 NSCLC
HOP-62 NSCLC = test system: HOP-62 NSCLC
IGROV1 ovarian = test system: IGROV1 ovarian
M14 melanoma = test system: M14 melanoma
NCI-H460 lung = test system: NCI-H460 lung
HCC-2998 colon = test system: HCC-2998 colon
NCI/ADR-RES ovarian = test system: NCI/ADR-RES ovarian
DU-145 prostate = test system: DU-145 prostate
HT29 colon = test system: HT29 colon
LOX IMVI melanoma = test system: LOX IMVI melanoma
HOP-92 NSCLC = test system: HOP-92 NSCLC
TK-10 renal = test system: TK-10 renal
SK-MEL-2 melanoma = test system: SK-MEL-2 melanoma
NCI-H522 lung = test system: NCI-H522 lung
T-47D breast = test system: T-47D breast
PC-3 prostate = test system: PC-3 prostate
EKVX NSCLC = test system: EKVX NSCLC
COLO 205 colon = test system: COLO 205 colon
SF-268 CNS = test system: SF-268 CNS
UACC-62 melanoma = test system: UACC-62 melanoma
SF-295 CNS = test system: SF-295 CNS
UACC-257 melanoma = test system: UACC-257 melanoma
SK-OV-3 ovarian = test system: SK-OV-3 ovarian
SF-539 CNS = test system: SF-539 CNS
SW-620 colon = test system: SW-620 colon
HCT-15 colon = test system: HCT-15 colon
SK-MEL-28 melanoma = test system: SK-MEL-28 melanoma
RXF 393 renal = test system: RXF 393 renal
CAKI-1 renal = test system: CAKI-1 renal
MOLT-4 leukemia = test system: MOLT-4 leukemia
OVCAR-5 ovarian = test system: OVCAR-5 ovarian
HCT-116 colon = test system: HCT-116 colon
OVCAR-4 ovarian = test system: OVCAR-4 ovarian
U251 CNS = test system: U251 CNS
SN12C renal = test system: SN12C renal
BT-549 breast = test system: BT-549 breast
K-562 leukemia = test system: K-562 leukemia
CCRF-CEM leukemia = test system: CCRF-CEM leukemia
RPMI-8226 leukemia = test system: RPMI-8226 leukemia
SK-MEL-5 melanoma = test system: SK-MEL-5 melanoma
KM12 colon = test system: KM12 colon
HL-60(TB) leukemia = test system: HL-60(TB) leukemia
A498 renal = test system: A498 renal
ACHN renal = test system: ACHN renal
MCF7 breast = test system: MCF7 breast
SR leukemia = test system: SR leukemia
NCI-H23 lung = test system: NCI-H23 lung
NCI-H226 lung = test system: NCI-H226 lung
MALME-3M melanoma = test system: MALME-3M melanoma
UO-31 renal = test system: UO-31 renal
MDA-N = test system: MDA-N
SNB-19 CNS = test system: SNB-19 CNS
OVCAR-3 ovarian = test system: OVCAR-3 ovarian

COc1cc(-c2c(C#N)c(N)c(C#N)c3c2COc2ccccc2-3)cc(OC)c1OC
TGI (OVCAR-8 ovarian): 97.6 µM
TGI (MDA-MB-435): > 100 µM
TGI (MDA-MB-231 breast): 40.2 µM
TGI (HS 578T breast): 39.7 µM
TGI (A549 NSCLC): > 100 µM
TGI (HOP-62 NSCLC): 19 µM
TGI (IGROV1 ovarian): > 79.6 µM
TGI (M14 melanoma): > 100 µM
TGI (NCI-H460 lung): > 100 µM
TGI (HCC-2998 colon): > 100 µM
TGI (NCI/ADR-RES ovarian): > 100 µM
TGI (DU-145 prostate): > 100 µM
TGI (HT29 colon): > 100 µM
TGI (LOX IMVI melanoma): > 100 µM
TGI (HOP-92 NSCLC): 38.6 µM
TGI (TK-10 renal): 40.3 µM
TGI (SK-MEL-2 melanoma): > 77.6 µM
TGI (NCI-H522 lung): > 100 µM
TGI (T-47D breast): > 100 µM
TGI (PC-3 prostate): > 100 µM
TGI (EKVX NSCLC): > 69.4 µM
TGI (COLO 205 colon): > 100 µM
TGI (SF-268 CNS): 34 µM
TGI (UACC-62 melanoma): > 100 µM
TGI (SF-295 CNS): 58.5 µM
TGI (UACC-257 melanoma): > 100 µM
TGI (SK-OV-3 ovarian): 32.4 µM
TGI (SF-539 CNS): 19.9 µM
TGI (SW-620 colon): > 100 µM
TGI (HCT-15 colon): > 100 µM
TGI (SK-MEL-28 melanoma): > 100 µM
TGI (RXF 393 renal): 34.4 µM
TGI (CAKI-1 renal): > 100 µM
TGI (MOLT-4 leukemia): > 100 µM
TGI (OVCAR-5 ovarian): > 100 µM
TGI (HCT-116 colon): > 100 µM
TGI (OVCAR-4 ovarian): > 64.8 µM
TGI (U251 CNS): 34.4 µM
TGI (SN12C renal): > 84.4 µM
TGI (BT-549 breast): > 75.4 µM
TGI (K-562 leukemia): > 100 µM
TGI (CCRF-CEM leukemia): > 100 µM
TGI (RPMI-8226 leukemia): > 100 µM
TGI (SK-MEL-5 melanoma): > 100 µM
TGI (KM12 colon): > 100 µM
TGI (HL-60(TB) leukemia): > 100 µM
TGI (A498 renal): > 100 µM
TGI (ACHN renal): > 100 µM
TGI (MCF7 breast): > 100 µM
TGI (SR leukemia): > 100 µM
TGI (NCI-H23 lung): > 60.8 µM
TGI (NCI-H226 lung): 59.4 µM
TGI (MALME-3M melanoma): 48.8 µM
TGI (UO-31 renal): > 69.8 µM
TGI (MDA-N): > 100 µM
TGI (SNB-19 CNS): > 43.5 µM
TGI (OVCAR-3 ovarian): > 83.8 µM
